From patent US20240327429A1, “[1,3]Thiazolo[4,5-d]-pyrimidon-7-ones as inhibitors of NOX4” (Boehringer Ingelheim International GmbH, priority 2023, published 2024)

Tests used:
[1] = biological target: T1, human NOX5 (hNOX5) (Homo sapiens, UniProt Q96PH1); assay: NOX5 inhibition assay (L-012), HEK293 cells stably overexpressing human NOX5; assay type: cell-based; conditions: HEK293-hNOX5, PMA stimulated
T1 construct: expressed in transfected cells; host or cells: HEK293
T1 sequence (Q96PH1 1-765): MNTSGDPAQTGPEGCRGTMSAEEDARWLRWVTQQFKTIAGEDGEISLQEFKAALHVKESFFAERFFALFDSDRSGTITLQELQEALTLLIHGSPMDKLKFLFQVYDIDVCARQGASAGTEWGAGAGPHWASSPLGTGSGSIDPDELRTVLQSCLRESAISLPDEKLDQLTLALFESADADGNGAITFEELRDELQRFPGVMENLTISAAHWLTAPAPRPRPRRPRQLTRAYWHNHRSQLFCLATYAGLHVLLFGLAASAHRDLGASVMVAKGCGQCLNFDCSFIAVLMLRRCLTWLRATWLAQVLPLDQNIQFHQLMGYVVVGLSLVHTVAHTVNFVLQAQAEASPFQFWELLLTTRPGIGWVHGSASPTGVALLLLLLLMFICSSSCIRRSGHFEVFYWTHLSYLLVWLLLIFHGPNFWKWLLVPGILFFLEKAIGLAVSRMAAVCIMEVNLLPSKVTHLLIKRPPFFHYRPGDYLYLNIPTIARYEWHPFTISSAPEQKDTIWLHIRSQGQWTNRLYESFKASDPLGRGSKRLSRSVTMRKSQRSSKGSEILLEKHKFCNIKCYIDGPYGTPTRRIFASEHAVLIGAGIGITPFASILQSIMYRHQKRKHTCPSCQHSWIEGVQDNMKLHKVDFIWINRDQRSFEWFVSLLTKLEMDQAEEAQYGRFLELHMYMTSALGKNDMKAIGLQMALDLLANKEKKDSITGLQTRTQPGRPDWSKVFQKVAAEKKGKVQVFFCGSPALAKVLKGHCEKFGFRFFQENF
Method: The synthetic gene hNOX5 (Accession: Q96PH1) is cloned into pcDNA3.1_Zeo. […] The final construct is verified by sequencing.
Evaluation of the NOX4 inhibitors on NOX5 activity is assessed in HEK293 cells stably overexpressing human NOX5 (hNOX5).
Cells are seeded in 384 well plates over-night. […] Cells are then stimulated with PMA at 0.1 μM to induce NOX5-dependent ROS production. […] Luminescence is measured with an PHERAstar multimode reader.

[2] = system: human hepatocytes; assay: Evaluation of hepatocyte clearance (metabolic stability); assay type: in vitro ADME; conditions: 1 μM test compound, 5% human serum, Table 3
Method: The metabolic degradation of the test compound is assayed in a hepatocyte suspension. Hepatocytes (cryopreserved) are incubated in Dulbecco's modified eagle medium (supplemented with […] glucagon/500 mL, 2.5 mg insulin/500 mL and 3.75 mg/500 mL hydrocortisone) containing 5% human serum.
Following a 30 min preincubation in an incubator (37° C., 10% CO2) 5 μl of test compound solution (80 μM; from 2 mM in DMSO stock solution diluted 1:25 with medium) are added into 395 μl hepatocyte suspension (cell density in the range 0.25-5 Mio cells/mL, typically 1 Mio cells/mL; final concentration of test compound 1 μM, final DMSO concentration 0.05%).
The cells are incubated for six hours (incubator, orbital shaker) and samples (25 μl) are taken at 0, 0.5, 1, 2, 4 and 6 hours. Samples are transferred into acetonitrile and pelleted by centrifugation (5 min). The supernatant is transferred to a new 96-deepwell plate, evaporated under nitrogen and resuspended.
Decline of Parent Compound is Analyzed by HPLC-MS/MS.
CLint is Calculated as Follows:
CL_[…]=Dose/AUC=(C0/CD)/(AUD+clast/k)×1000/60. • C0: initial concentration in the incubation [μM], CD: cell density of vital cells [10^6 cells/mL], AUD: area under the data [μM×h], clast: concentration of last data point [μM], • k: slope of the regression line for parent decline [h-1].
The calculated in vitro hepatic intrinsic clearance can be scaled up to the intrinsic in vivo hepatic clearance and used to predict hepatic in vivo blood clearance (CL) by the use of a liver model (well stirred model).
CL_[…]_INVIVO[ml/min/kg]=(CL_[…][μL/min/10^6 cells]×hepatocellularity[10^6 cells/g liver]×liver factor[g/kg bodyweight])/1000
CL[ml/min/kg]=CL_[…]_INVIVO[ml/min/kg]×hepatic blood flow[ml/min/kg]/(CL_[…]_INVIVO[ml/min/kg]+hepatic blood flow[ml/min/kg])

[3] = biological target: T2, NOX2 (Homo sapiens, UniProt P04839); assay: NOX2 inhibition assay (L-012), human blood-derived granulocytes; assay type: cell-based; conditions: fMLP/PMA stimulated
T2 construct: endogenous in cells; host or cells: freshly isolated human blood-derived granulocytes
T2 sequence (P04839 2-570 limits assumed): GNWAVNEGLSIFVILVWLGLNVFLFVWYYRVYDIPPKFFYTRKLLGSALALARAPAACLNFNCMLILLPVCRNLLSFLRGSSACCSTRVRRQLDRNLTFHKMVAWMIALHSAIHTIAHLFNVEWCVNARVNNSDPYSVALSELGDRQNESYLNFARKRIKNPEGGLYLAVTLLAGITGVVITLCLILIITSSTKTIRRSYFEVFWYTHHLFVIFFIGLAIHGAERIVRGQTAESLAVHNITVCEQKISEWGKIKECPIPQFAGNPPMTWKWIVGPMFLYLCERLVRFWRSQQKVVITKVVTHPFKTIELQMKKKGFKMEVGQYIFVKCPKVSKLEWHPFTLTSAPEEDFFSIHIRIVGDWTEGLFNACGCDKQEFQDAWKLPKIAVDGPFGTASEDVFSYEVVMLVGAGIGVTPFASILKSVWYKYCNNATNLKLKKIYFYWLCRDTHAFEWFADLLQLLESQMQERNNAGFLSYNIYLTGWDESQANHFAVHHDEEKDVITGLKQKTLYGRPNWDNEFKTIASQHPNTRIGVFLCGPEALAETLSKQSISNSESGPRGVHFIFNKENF
T2 sequence (P13498 2-195 partner limits assumed): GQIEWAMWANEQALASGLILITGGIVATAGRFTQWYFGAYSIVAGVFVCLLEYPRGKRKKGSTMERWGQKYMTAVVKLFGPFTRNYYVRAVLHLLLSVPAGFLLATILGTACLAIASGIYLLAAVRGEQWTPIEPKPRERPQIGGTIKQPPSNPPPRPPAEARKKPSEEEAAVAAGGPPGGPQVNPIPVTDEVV
Method: Evaluation of the NOX4 inhibitors on NOX2 activity is assessed in human blood-derived granulocytes.
Afterwards, freshly isolated granulocytes are added to the wells containing the compounds in assay buffer and incubated for 1 h at 37° C. Next, a solution of Nformylmethionine-leucyl-phenylalanine (fMLP; 730 nM), phorbol myristate acetate (PMA, 100 nM) (stimuli of ROS production) and L-012 (200 μM, ROS indicator) is added to the wells and the cells are incubated for additional 30 mins at 37° C. Afterwards luminescence is measured in a SpectraMax M5 microplate reader.

Compound | IC50 [1] [µM] | Qh [%] [2] [%] | IC50 [3] [µM]
O=c1c2scnc2nc(SCc2ccc(C(F)(F)F)cc2Cl)n1-c1cnc(O)c(F)c1 [Example 46] | 44.7 | 21 | > 100
Cc1cc(Cl)ccc1CSc1nc2ncsc2c(=O)n1-c1cc(F)c(O)c(F)c1 [Example 3] | > 100 | – | > 100
O=c1c2scnc2nc(SCc2ccc(C(F)(F)F)cc2F)n1-c1cnc(O)c(F)c1 [Example 42] | 46.8 | 14 | > 100
Cc1cc(Cl)ccc1CSc1nc2ncsc2c(=O)n1-c1cnc(O)c(F)c1 [Example 37] | 64.5 | 16 | > 100
O=c1c2scnc2nc(SCc2ccc(Cl)cc2)n1-c1cc(F)c(O)c(F)c1 [Example 5] | > 100 | 56 | > 100
O=c1c2scnc2nc(SCc2ccc(Cl)cc2)n1-c1cnc(O)nc1 [Example 56] | > 100 | <4 | > 100
O=c1c2scnc2nc(SCc2ccc(Cl)cc2F)n1-c1ccc(O)nc1 [Example 22, 5-((4-Chloro-2-fluorobenzyl)thio)-6-(6-hydroxypyridin-3-yl)thiazolo[4,5-d]pyrimidin-7(6H)-one] | > 100 | 45 | > 30
O=c1c2scnc2nc(SCc2ccc(C(F)(F)F)cc2)n1-c1cc(F)c(O)c(F)c1 [Example 7] | > 100 | 55 | > 100
Cc1cc(Cl)ccc1CSc1nc2ncsc2c(=O)n1-c1ccc(O)nn1 [Example 62] | > 100 | 58 | > 100
O=c1c2scnc2nc(SCc2ccc(C(F)(F)F)cc2F)n1-c1ccc(O)nn1 [Example 65] | > 100 | 50 | > 100
Cc1c(F)cccc1CSc1nc2ncsc2c(=O)n1-c1cnc(O)c(F)c1 [Example 40] | 56.3 | – | > 100
O=c1c2scnc2nc(SCc2ccc(C(F)(F)F)cc2F)n1-c1cc(F)c(O)c(F)c1 [Example 6] | > 100 | – | > 100
Cc1cc(F)ccc1CSc1nc2ncsc2c(=O)n1-c1ccc(O)nn1 [Example 68] | > 100 | – | > 100

Results, then the compound that gave them:

IC50 [1] [µM] | Qh [%] [2] [%] | IC50 [3] [µM] | Compound
65.5 | 15 | > 100 | O=c1c2scnc2nc(SCc2ccc(Cl)cc2F)n1-c1cnc(O)c(F)c1 [Example 35]
11.5 | 72 | > 30 | O=c1c2scnc2nc(SCc2c(F)cc(F)cc2F)n1-c1cc(F)c(O)cc1F [Example 10, 6-(2,5-Difluoro-4-hydroxyphenyl)-5-((2,4,6-trifluorobenzyl)thio)thiazolo[4,5-d]pyrimidin-7(6H)-one]
38.9 | 20 | > 100 | O=c1c2scnc2nc(SCc2c(F)cc(F)cc2F)n1-c1cnc(O)c(F)c1F [Example 52, 6-(4,5-Difluoro-6-hydroxypyridin-3-yl)-5-((2,4,6-trifluorobenzyl)thio)thiazolo[4,5-d]-pyrimidin-7(6H)-one]
17.5 | 70 | – | O=c1c2scnc2nc(SCc2c(F)cc(F)cc2F)n1-c1ccc(O)cc1Cl [Example 17]
> 100 | 37 | > 30 | O=c1c2scnc2nc(SCc2c(F)cc(F)cc2F)n1-c1ccc(O)nn1 [Example 67]
> 100 | 34 | > 100 | Cc1cc(F)ccc1CSc1nc2ncsc2c(=O)n1-c1cnc(O)c(F)c1 [Example 36]
32.7 | 51 | > 100 | O=c1c2scnc2nc(SCc2c(F)cc(F)cc2F)n1-c1cc(F)c(O)cn1 [Example 20]
85.8 | 15 | > 100 | Cc1cc(F)cc(C)c1CSc1nc2ncsc2c(=O)n1-c1cnc(O)nc1 [Example 55]
> 100 | 11 | > 100 | O=c1c2scnc2nc(SCc2ccc(F)cc2F)n1-c1cnc(O)c(F)c1 [Example 38]
35.8 | 26 | 39.3 | O=c1c2scnc2nc(SCc2c(F)cc(F)cc2Cl)n1-c1cnc(O)c(F)c1 [Example 41]
> 100 | 37 | > 100 | Cc1cc(F)cc(C)c1CSc1nc2ncsc2c(=O)n1-c1cnc(O)c(F)c1 [Example 43]
> 100 | 14 | 10.5 | O=c1c2scnc2nc(SCc2c(F)cc(F)cc2F)n1-c1cnc(O)c(F)c1 [Example 31, 6-(5-Fluoro-6-hydroxypyridin-3-yl)-5-((2,4,6-trifluorobenzyl)thio)thiazolo[4,5-d]-pyrimidin-7(6H)-one]
– | 77 | > 30 | O=c1c2scnc2nc(SCc2c(F)cc(F)cc2F)n1-c1ccc(O)c(F)c1F [Example 12]
> 100 | 65 | > 100 | Cc1cc(F)ccc1CSc1nc2ncsc2c(=O)n1-c1cc(F)c(O)c(F)c1 [Example 9]
5.1 | – | 84.6 | O=c1c2scnc2nc(SCc2c(F)cc(F)cc2F)n1-c1c(F)cc(O)cc1F [Example 13]
> 100 | – | 46 | Cc1cc(F)cc(C)c1CSc1nc2ncsc2c(=O)n1-c1ccc(O)nn1 [Example 63]
